Reference: the NIST ThermoML archive (doi:10.1016/j.jct.2014.01.012)
± gives the expanded uncertainty stated by the source.

Key:
[1] = 101.33 kPa, Liquid
[2] = refractive index (Na D-line) (dimensionless); conditions: 101.33 kPa, Liquid
[3] = xn = mol fraction of the nth substance listed; conditions: 101 kPa, Liquid, x2 = 0
[4] = refractive index (Na D-line) (dimensionless); xn = mol fraction of the nth substance listed; conditions: 101 kPa, Liquid, x2 = 0

CCCCCCn1cc[n+](C)c1.F[P-](F)(F)(F)(F)F [1-hexyl-3-methylimidazolium hexafluorophosphate]
Conditions | mass density, Vibrating tube method [kg/m3] | refractive index, Standard Abbe refractometry | speed of sound, Sing-around technique in a fixed-path interferometer [m/s]
[1], 293.15 K | 1291.38 ± 4.2 | – | 1436.9 ± 3.1
[1], 298.15 K | 1287.34 ± 4.2 | – | 1423.5 ± 3.1
[1], 303.15 K | 1283.29 ± 4.1 | – | 1410.6 ± 3.1
[1], 308.15 K | 1279.4 ± 4.1 | – | 1398.2 ± 3.1
[1], 313.15 K | 1275.48 ± 4.1 | – | 1386 ± 3.1
[1], 318.15 K | 1271.56 ± 4 | – | 1374.2 ± 3.1
[1], 323.15 K | 1267.63 ± 4 | – | 1362.5 ± 3.1
[2], 293.15 K | – | 1.42064 ± 0.00072 | –
[2], 298.15 K | – | 1.41935 ± 0.00072 | –
[2], 303.15 K | – | 1.41806 ± 0.00072 | –
[2], 308.15 K | – | 1.41676 ± 0.00072 | –
[2], 313.15 K | – | 1.41547 ± 0.00072 | –
[2], 318.15 K | – | 1.41417 ± 0.00072 | –
[2], 323.15 K | – | 1.41288 ± 0.00072 | –

CCCCCCCC[n+]1ccn(C)c1.F[P-](F)(F)(F)(F)F [1-octyl-3-methylimidazolium hexafluorophosphate]
Conditions | mass density, [1] [kg/m3] | refractive index, [2] | speed of sound, [1] [m/s]
293.15 K | 1222.81 ± 4.2 | 1.42649 ± 0.0017 | 1388.2 ± 4.7
298.15 K | 1218.9 ± 4.2 | 1.42512 ± 0.0017 | 1373.4 ± 4.7
303.15 K | 1214.96 ± 4.1 | 1.42376 ± 0.0017 | 1359.3 ± 4.6
308.15 K | 1211.13 ± 4.1 | 1.4224 ± 0.0017 | 1345.8 ± 4.6
313.15 K | 1207.33 ± 4.1 | 1.42103 ± 0.0017 | 1332.7 ± 4.6
318.15 K | 1203.5 ± 4 | 1.41967 ± 0.0017 | 1320.1 ± 4.6
323.15 K | 1199.67 ± 4 | 1.41831 ± 0.0017 | 1307.7 ± 4.5

CCCCOC(C)=O [butyl ethanoate]
Conditions | mass density, Vibrating tube method [kg/m3] | refractive index, Standard Abbe refractometry | speed of sound, Sing-around technique in a fixed-path interferometer [m/s]
[1], 293.15 K | 881.134 ± 0.2 | – | 1211.3 ± 1.4
[1], 298.15 K | 876.004 ± 0.2 | – | 1190.5 ± 1.4
[1], 303.15 K | 870.855 ± 0.2 | – | 1169.8 ± 1.3
[1], 308.15 K | 865.685 ± 0.2 | – | 1149.2 ± 1.3
[1], 313.15 K | 860.492 ± 0.2 | – | 1128.8 ± 1.3
[1], 318.15 K | 855.275 ± 0.21 | – | 1108.5 ± 1.3
[1], 323.15 K | 850.032 ± 0.21 | – | 1088.3 ± 1.3
[2], 293.15 K | – | 1.39428 ± 0.00042 | –
[2], 298.15 K | – | 1.39188 ± 0.00042 | –
[2], 303.15 K | – | 1.38948 ± 0.00042 | –
[2], 308.15 K | – | 1.3871 ± 0.00042 | –
[2], 313.15 K | – | 1.38469 ± 0.00042 | –
[2], 318.15 K | – | 1.38227 ± 0.00042 | –
[2], 323.15 K | – | 1.37984 ± 0.00042 | –

CCCCOC(C)=O [butyl ethanoate] + CCCCCCCC[n+]1ccn(C)c1.F[P-](F)(F)(F)(F)F
Conditions | mass density, [3] [kg/m3] | refractive index, [4] | speed of sound, [3] [m/s]
293.15 K | 881.134 ± 0.5 | 1.39428 ± 0.0016 | 1211.3 ± 2.7
298.15 K | 876.004 ± 0.51 | 1.39188 ± 0.0016 | 1190.5 ± 2.7
303.15 K | 870.855 ± 0.52 | 1.38948 ± 0.0016 | 1169.8 ± 2.7
308.15 K | 865.685 ± 0.53 | 1.3871 ± 0.0016 | 1149.2 ± 2.6
313.15 K | 860.492 ± 0.53 | 1.38469 ± 0.0016 | 1128.8 ± 2.6
318.15 K | 855.275 ± 0.54 | 1.38227 ± 0.0016 | 1108.5 ± 2.6
323.15 K | 850.032 ± 0.55 | 1.37984 ± 0.0016 | 1088.3 ± 2.6

CCCCOC(C)=O [butyl ethanoate] + CCCCCCn1cc[n+](C)c1.F[P-](F)(F)(F)(F)F
Conditions | mass density, Vibrating tube method [kg/m3] | refractive index, Standard Abbe refractometry | speed of sound, Sing-around technique in a fixed-path interferometer [m/s]
[3], 293.15 K | 881.134 ± 0.2 | – | 1211.3 ± 1.4
[3], 298.15 K | 876.004 ± 0.2 | – | 1190.5 ± 1.4
[3], 303.15 K | 870.855 ± 0.2 | – | 1169.8 ± 1.3
[3], 308.15 K | 865.685 ± 0.2 | – | 1149.2 ± 1.3
[3], 313.15 K | 860.492 ± 0.2 | – | 1128.8 ± 1.3
[3], 318.15 K | 855.275 ± 0.2 | – | 1108.5 ± 1.3
[3], 323.15 K | 850.032 ± 0.21 | – | 1088.3 ± 1.3
[4], 293.15 K | – | 1.39428 ± 0.00042 | –
[4], 298.15 K | – | 1.39188 ± 0.00042 | –
[4], 303.15 K | – | 1.38948 ± 0.00042 | –
[4], 308.15 K | – | 1.3871 ± 0.00042 | –
[4], 313.15 K | – | 1.38469 ± 0.00042 | –
[4], 318.15 K | – | 1.38227 ± 0.00042 | –
[4], 323.15 K | – | 1.37984 ± 0.00042 | –

CCOC(C)=O [ethyl acetate]
Conditions | mass density, Vibrating tube method [kg/m3] | refractive index, Standard Abbe refractometry | speed of sound, Sing-around technique in a fixed-path interferometer [m/s]
[1], 293.15 K | 900.573 ± 0.13 | – | 1162.4 ± 1.2
[1], 298.15 K | 894.473 ± 0.13 | – | 1139.8 ± 1.2
[1], 303.15 K | 888.347 ± 0.13 | – | 1117.2 ± 1.2
[1], 308.15 K | 882.172 ± 0.13 | – | 1094.7 ± 1.2
[1], 313.15 K | 875.951 ± 0.14 | – | 1072.4 ± 1.2
[1], 318.15 K | 869.681 ± 0.14 | – | 1050.1 ± 1.2
[1], 323.15 K | 863.358 ± 0.14 | – | 1028 ± 1.2
[2], 293.15 K | – | 1.37237 ± 0.00041 | –
[2], 298.15 K | – | 1.36982 ± 0.00041 | –
[2], 303.15 K | – | 1.36727 ± 0.00041 | –
[2], 308.15 K | – | 1.36473 ± 0.00041 | –
[2], 313.15 K | – | 1.36219 ± 0.00041 | –
[2], 318.15 K | – | 1.35968 ± 0.00041 | –
[2], 323.15 K | – | 1.35732 ± 0.00041 | –

CCOC(C)=O [ethyl acetate] + CCCCCCCC[n+]1ccn(C)c1.F[P-](F)(F)(F)(F)F
Conditions | mass density, [3] [kg/m3] | refractive index, [4] | speed of sound, [3] [m/s]
293.15 K | 900.573 ± 0.39 | 1.37237 ± 0.0016 | 1162.4 ± 2.5
298.15 K | 894.473 ± 0.41 | 1.36982 ± 0.0016 | 1139.8 ± 2.4
303.15 K | 888.347 ± 0.42 | 1.36727 ± 0.0016 | 1117.2 ± 2.4
308.15 K | 882.172 ± 0.43 | 1.36473 ± 0.0016 | 1094.7 ± 2.4
313.15 K | 875.951 ± 0.44 | 1.36219 ± 0.0016 | 1072.4 ± 2.4
318.15 K | 869.681 ± 0.45 | 1.35968 ± 0.0016 | 1050.1 ± 2.3
323.15 K | 863.358 ± 0.47 | 1.35732 ± 0.0016 | 1028 ± 2.3

CCOC(C)=O [ethyl acetate] + CCCCCCn1cc[n+](C)c1.F[P-](F)(F)(F)(F)F
[3]
Conditions | mass density, Vibrating tube method [kg/m3] | speed of sound, Sing-around technique in a fixed-path interferometer [m/s]
293.15 K | 900.573 ± 0.12 | 1162.4 ± 1.2
298.15 K | 894.473 ± 0.13 | 1139.8 ± 1.2
303.15 K | 888.347 ± 0.13 | 1117.2 ± 1.2
308.15 K | 882.172 ± 0.13 | 1094.7 ± 1.2
313.15 K | 875.951 ± 0.14 | 1072.4 ± 1.2
318.15 K | 869.681 ± 0.14 | 1050.1 ± 1.2
323.15 K | 863.358 ± 0.14 | 1028 ± 1.2

[4]
Conditions | refractive index
293.15 K | 1.37237 ± 0.0008
298.15 K | 1.36982 ± 0.0008
303.15 K | 1.36727 ± 0.0008
308.15 K | 1.36473 ± 0.0008
313.15 K | 1.36219 ± 0.0008
318.15 K | 1.35968 ± 0.0008
323.15 K | 1.35732 ± 0.0008
